Experimental data reported in ChEMBL document CHEMBL3608293, “Novel Pyrazine Amide Compounds” (ACS Med Chem Lett, 2015).

target: T1, Epithelial sodium channel subunit alpha (Mus musculus, UniProt Q61180); test: Inhibition of ENaC in mouse M1 assessed as effect on trans epithelial electrical resistance by measuring short circuit currents by voltage-clamp based Ussing chamber assay
T1 sequence (Q61180 whole entry): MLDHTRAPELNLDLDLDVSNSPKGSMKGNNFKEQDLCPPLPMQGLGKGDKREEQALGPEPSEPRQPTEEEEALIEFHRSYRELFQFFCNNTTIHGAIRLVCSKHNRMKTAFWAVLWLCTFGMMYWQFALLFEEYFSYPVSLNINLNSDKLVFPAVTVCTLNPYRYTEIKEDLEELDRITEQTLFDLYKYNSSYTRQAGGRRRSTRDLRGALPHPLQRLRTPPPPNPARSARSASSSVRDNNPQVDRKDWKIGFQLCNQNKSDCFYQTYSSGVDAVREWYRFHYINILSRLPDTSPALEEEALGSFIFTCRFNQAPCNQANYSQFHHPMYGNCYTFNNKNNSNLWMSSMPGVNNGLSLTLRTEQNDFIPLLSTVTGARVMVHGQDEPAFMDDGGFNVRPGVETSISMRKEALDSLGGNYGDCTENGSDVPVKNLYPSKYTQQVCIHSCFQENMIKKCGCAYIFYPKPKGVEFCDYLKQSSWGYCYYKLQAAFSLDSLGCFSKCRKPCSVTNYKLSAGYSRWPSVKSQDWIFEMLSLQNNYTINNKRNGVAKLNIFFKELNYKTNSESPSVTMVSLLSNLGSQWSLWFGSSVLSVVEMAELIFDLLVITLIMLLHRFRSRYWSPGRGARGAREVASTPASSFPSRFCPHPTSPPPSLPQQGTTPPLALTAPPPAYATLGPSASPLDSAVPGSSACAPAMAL

| SMILES | IC50 [nM] |
| --- | --- |
| COc1ccc(CCC[N+]2(CCCc3ccccc3)CCCC(NC(=O)c3nc(Cl)c(N)nc3N)C2)cc1 (stereo unspecified) | 6 |
| COc1ccc(CCC[N@@+]2(C)CCC[C@H](NC(=O)c3nc(Cl)c(N)nc3N)C2)cc1 | 70 |
| Nc1nc(N)c(C(=O)N[C@H]2CCC[N+](CCCc3ccc(OCC(=O)NCCn4ccnc4)cc3)(CCCc3ccc(OCC(=O)NCCn4ccnc4)cc3)C2)nc1Cl | 9 |
| Nc1nc(N)c(C(=O)N[C@H]2CCC[N+](CCCc3ccc(OCC(=O)NCCc4ccccn4)cc3)(CCCc3ccc(OCC(=O)NCCc4ccccn4)cc3)C2)nc1Cl | 6 |
| Nc1nc(N)c(C(=O)N[C@H]2CCC[N+](CCCc3ccc(OCC(=O)NCCCO)cc3)(CCCc3ccc(OCC(=O)NCCCO)cc3)C2)nc1Cl | 13 |
| COc1ccc(CCC[N+]2(CCCc3ccc(C(=O)NCCCN(C)C)cc3)CCCC(NC(=O)c3nc(Cl)c(N)nc3N)C2)cc1 (stereo unspecified) | 20 |
